Results published in US20100056519A1, “COMPOSITION AND METHOD FOR REDUCING PLATELET ACTIVATION AND FOR THE TREATMENT OF THROMBOTIC EVENTS” (priority 2008, published 2010).

Columns and labels:
Format in all cases: cell-based, human
P-selectin (CD62p) = assay: TRAP-stimulated whole blood flow cytometry, P-selectin; settings: Mean ± SD
Method: (§1) The methodology employed was conventional aggregation induced by 5 μM ADP, 1 μg/ml collagen, 10 μM TRAP, whole blood aggregation with 1 μg/ml collagen, Ultegra, and PFA-100 Analyzers, expression of 14 intact, and TRAP-stimulated major receptors by whole blood flow cytometry were utilized to assess platelet activity after preincubation with escalating concentrations of E5555 (20 ng/ml, 50 ng/ml, and 100 ng/ml). The experiments were performed in healthy volunteers, CAD patients treated with ASA, and CAD patients treated with ASA and clopidogrel combination (n=10, for each group).
(§2) An Informed Consent was obtained from all volunteers. Drug users were excluded from data analysis. The study was approved by Quorum Institutional Review Board. All subjects underwent blood sampling after at least 30 minutes of rest and two or more hours of fasting. Blood (28 ml) was drawn between 8 and 10 a.m. in order to avoid any diurnal influence and sampled from an antecubital vein using a 21-gauge butterfly needle containing 3.2% sodium citrate (1:9 volume) after having discarded the first 1.5 ml of free running blood. Four Vacutainer tubes (7.0 ml) were collected for a total of 28 ml of whole blood-citrate mixture from each study participant. Chronologically, blood samples were delivered to the core laboratory facility within 45 minutes after drawing. Then all tubes of blood-citrate mixture were pooled. One portion of pooled blood (5 ml) was kept as an internal control and pretreated with the vehicle. The remaining blood (23 ml) was used for the in vitro exposure to E5555 at concentrations of 20 ng/ml, 50 ng/ml, and 100 ng/ml. […] The platelet aggregation studies, Rapid Analyzers measures, and flow cytometry preparations were initiated within no more than 110 minutes following the blood draw, incubation with the drug, and preparation of the samples.
(§3) Formation of platelet-leukocyte aggregates was assessed by dual labeling with pan-platelet marker (CD151), and then with CD14, the macrophage receptor for endotoxin lipopolysaccharides (PharMingen, and Coulter, San Diego, Calif., USA). The tubes were then covered with aluminum foil and incubated at 37° C. for 40 minutes with gentle rotation. After incubation, samples were immediately analyzed on a Becton Dickinson FACScan flow cytometer. The instrument was set up to measure forward light scatter, and FITC fluorescence. All parameters were collected using four-decade logarithmic amplification. The data was retrieved in list mode files and then analyzed. P selectin was expressed as percent positive cells. Other antigens were expressed as log mean fluorescence intensity.
(§4) For flow cytometry (TRAP-stimulated) all of the above flow cytometry experiments were identically repeated utilizing prestimulation with 10 μmol/L TRAP for 5 minutes at 37° C. To determine statistics, a Paired Sign Test was used to define significance of differences between vehicle and E5555-treated groups. The Mann-Whitney U test was used to analyze nonparametric data. Normally distributed data were expressed as mean±standard error (m±SE), and skewed data as median (range). All P-values were two sided. All analysis was performed using the SPSS v9.0 program (SPSS Inc., Chicago, Ill.).

LAMP-1 (CD107a) [1] = assay: Unstimulated whole blood flow cytometry, LAMP-1; settings: for LAMP-1 (CD107a), Mean Fluorescence Intensity: unstimulated, Mean ± SD
Method: as §1, §2, §3

PMA (CD14 + CD151) = assay: TRAP-stimulated whole blood flow cytometry, platelet-monocyte aggregates; settings: Mean ± SD
Method: as §1, §2, §3, §4

LAMP-1 (CD107a) [2] = assay: TRAP-stimulated whole blood flow cytometry, LAMP-1; settings: Mean ± SD
Method: as §1, §2, §3, §4

[3] = E5555 20 ng/ml, Patients (ASA + C)
[4] = E5555 50 ng/ml, Patients (ASA + C)
[5] = E5555 100 ng/ml, Patients (ASA + C)
[6] = E5555 100 ng/ml, Patients (ASA)

Compound: Br.CCOc1cc2c(c(F)c1OCC)C(=N)N(CC(=O)c1cc(N3CCOCC3)c(OC)c(C(C)(C)C)c1)C2 [E5555, 1-(3-tert-butyl-4-methoxy-5-morpholinophenyl)-2-(5,6-diethoxy-7-fluoro-1-imino-1,3-dihydro-2H-isoindol-2-yl)ethanone hydrobromide]
- P-selectin (CD62p), % positive cells (P-selectin (CD62p); [3]): 11 ± 5 % positive cells
- P-selectin (CD62p), % positive cells (P-selectin (CD62p); E5555 20 ng/ml, Patients (ASA)): 22 ± 6 % positive cells
- P-selectin (CD62p), % positive cells (P-selectin (CD62p); E5555 20 ng/ml, Volunteers): 31 ± 8 % positive cells
- P-selectin (CD62p), % positive cells (P-selectin (CD62p); [4]): 8 ± 3 % positive cells
- P-selectin (CD62p), % positive cells (P-selectin (CD62p); E5555 50 ng/ml, Patients (ASA)): 15 ± 4 % positive cells
- P-selectin (CD62p), % positive cells (P-selectin (CD62p); E5555 50 ng/ml, Volunteers): 14 ± 3 % positive cells
- P-selectin (CD62p), % positive cells (P-selectin (CD62p); [5]): 3 ± 1 % positive cells
- P-selectin (CD62p), % positive cells (P-selectin (CD62p); [6]): 8 ± 4 % positive cells
- P-selectin (CD62p), % positive cells (P-selectin (CD62p); E5555 100 ng/ml, Volunteers): 11 ± 3 % positive cells
- LAMP-1, effect in words (LAMP-1 (CD107a) [1]; overall summary, stimulation not stated): not affected
- LAMP-1 (CD107a), Mean Fluorescence Intensity (LAMP-1 (CD107a) [1]; [3]): 4.2 ± 1.6 MFI
- LAMP-1 (CD107a), Mean Fluorescence Intensity (LAMP-1 (CD107a) [1]; E5555 20 ng/ml, Patients (ASA)): 4.3 ± 1.2 MFI
- LAMP-1 (CD107a), Mean Fluorescence Intensity (LAMP-1 (CD107a) [1]; E5555 20 ng/ml, Volunteers): 4.7 ± 0.5 MFI
- LAMP-1 (CD107a), Mean Fluorescence Intensity (LAMP-1 (CD107a) [1]; [4]): 4.7 ± 1.3 MFI
- LAMP-1 (CD107a), Mean Fluorescence Intensity (LAMP-1 (CD107a) [1]; E5555 50 ng/ml, Patients (ASA)): 5.0 ± 1.7 MFI
- LAMP-1 (CD107a), Mean Fluorescence Intensity (LAMP-1 (CD107a) [1]; E5555 50 ng/ml, Volunteers): 4.6 ± 0.6 MFI
- LAMP-1 (CD107a), Mean Fluorescence Intensity (LAMP-1 (CD107a) [1]; [5]): 4.8 ± 1.4 MFI
- LAMP-1 (CD107a), Mean Fluorescence Intensity (LAMP-1 (CD107a) [1]; [6]): 4.3 ± 1.5 MFI
- LAMP-1 (CD107a), Mean Fluorescence Intensity (LAMP-1 (CD107a) [1]; E5555 100 ng/ml, Volunteers): 4.4 ± 1.0 MFI
- PMA (CD14 + CD151), Mean Fluorescence Intensity (PMA (CD14 + CD151); [3]): 100 ± 21 MFI
- PMA (CD14 + CD151), Mean Fluorescence Intensity (PMA (CD14 + CD151); E5555 20 ng/ml, Patients (ASA)): 109 ± 23 MFI
- PMA (CD14 + CD151), Mean Fluorescence Intensity (PMA (CD14 + CD151); E5555 20 ng/ml, Volunteers): 133 ± 19 MFI
- PMA (CD14 + CD151), Mean Fluorescence Intensity (PMA (CD14 + CD151); [4]): 77 ± 23 MFI
- PMA (CD14 + CD151), Mean Fluorescence Intensity (PMA (CD14 + CD151); E5555 50 ng/ml, Patients (ASA)): 82 ± 10 MFI
- PMA (CD14 + CD151), Mean Fluorescence Intensity (PMA (CD14 + CD151); E5555 50 ng/ml, Volunteers): 118 ± 14 MFI
- PMA (CD14 + CD151), Mean Fluorescence Intensity (PMA (CD14 + CD151); [5]): 108 ± 19 MFI
- PMA (CD14 + CD151), Mean Fluorescence Intensity (PMA (CD14 + CD151); [6]): 116 ± 23 MFI
- PMA (CD14 + CD151), Mean Fluorescence Intensity (PMA (CD14 + CD151); E5555 100 ng/ml, Volunteers): 125 ± 20 MFI
- LAMP-1 (CD107a), Mean Fluorescence Intensity (LAMP-1 (CD107a) [2]; [3]): 4.0 ± 0.8 MFI
- LAMP-1 (CD107a), Mean Fluorescence Intensity (LAMP-1 (CD107a) [2]; E5555 20 ng/ml, Patients (ASA)): 4.1 ± 0.7 MFI
- LAMP-1 (CD107a), Mean Fluorescence Intensity (LAMP-1 (CD107a) [2]; E5555 20 ng/ml, Volunteers): 5.9 ± 0.8 MFI
- LAMP-1 (CD107a), Mean Fluorescence Intensity (LAMP-1 (CD107a) [2]; [4]): 3.2 ± 1.0 MFI
- LAMP-1 (CD107a), Mean Fluorescence Intensity (LAMP-1 (CD107a) [2]; E5555 50 ng/ml, Patients (ASA)): 4.0 ± 0.5 MFI
- LAMP-1 (CD107a), Mean Fluorescence Intensity (LAMP-1 (CD107a) [2]; E5555 50 ng/ml, Volunteers): 4.9 ± 0.4 MFI
- LAMP-1 (CD107a), Mean Fluorescence Intensity (LAMP-1 (CD107a) [2]; [5]): 3.0 ± 1.1 MFI
